Laboratory results: US8642594B2, “Substituted thieno[2,3-d]pyrimidines as HSP90 inhibitors” (Vernalis (R&D) Limited, priority 2003, dated 2014)

Molecular target: T1, Human full-length Hsp90 (Homo sapiens, UniProt P08238)
T1 construct: E. coli expressed human full-length HSP90 protein, purified >95%; made in house; host or cells: E. coli
Assay: Fluorescence polarization assay (competitive binding to HSP90, probe RBT0045864-FAM)
Settings: not given
Protocol: Fluorescence Polarization Assay
Fluorescence polarization {also known as fluorescence anisotropy} measures the rotation of a fluorescing species in solution, where the larger molecule the more polarized the fluorescence emission. When the fluorophore is excited with polarized light, the emitted light is also polarized. The molecular size is proportional to the polarization of the fluorescence emission.
The fluoroscein-labelled probe—RBT0045864-FAM—
Test compound is added to the assay plate, left to equilibrate and the anisotropy measured again. Any change in anisotropy is due to competitive binding of compound to HSP90, thereby releasing probe.
Stored at room temperature. • 3) BSA (bovine serum albumen) 10 mg/ml (New England Biolabs #B9001S) • 4) 20 mM probe in 100% DMSO stock concentration. Stored in the dark at RT. Working concentration is 200 nM diluted in AR water and stored at 4° C. […] Protocol • 1) Add 100 μl 1× buffer to wells 11A and 12A (=FP BLNK) • 2) Prepare assay mix—all reagents are kept on ice with a lid on the bucket as the probe is light-sensitive.
This gives 2.5 mM {50×} stock cpd—assuming cpds 20 mM. • 4) Repeat for wells A2 to A10. Control in columns 11 and 12. • 5) Transfer 5 μl from row A to row B—not column 12. Mix well. • 6) Transfer 5 μl from row B to row C. […] Add 2 μl of 100 mM standard cpd to wells B12-H12 {is positive control} • 13) The Z′ factor is calculated from zero controls and positive wells.

T1 sequence (P08238 whole entry): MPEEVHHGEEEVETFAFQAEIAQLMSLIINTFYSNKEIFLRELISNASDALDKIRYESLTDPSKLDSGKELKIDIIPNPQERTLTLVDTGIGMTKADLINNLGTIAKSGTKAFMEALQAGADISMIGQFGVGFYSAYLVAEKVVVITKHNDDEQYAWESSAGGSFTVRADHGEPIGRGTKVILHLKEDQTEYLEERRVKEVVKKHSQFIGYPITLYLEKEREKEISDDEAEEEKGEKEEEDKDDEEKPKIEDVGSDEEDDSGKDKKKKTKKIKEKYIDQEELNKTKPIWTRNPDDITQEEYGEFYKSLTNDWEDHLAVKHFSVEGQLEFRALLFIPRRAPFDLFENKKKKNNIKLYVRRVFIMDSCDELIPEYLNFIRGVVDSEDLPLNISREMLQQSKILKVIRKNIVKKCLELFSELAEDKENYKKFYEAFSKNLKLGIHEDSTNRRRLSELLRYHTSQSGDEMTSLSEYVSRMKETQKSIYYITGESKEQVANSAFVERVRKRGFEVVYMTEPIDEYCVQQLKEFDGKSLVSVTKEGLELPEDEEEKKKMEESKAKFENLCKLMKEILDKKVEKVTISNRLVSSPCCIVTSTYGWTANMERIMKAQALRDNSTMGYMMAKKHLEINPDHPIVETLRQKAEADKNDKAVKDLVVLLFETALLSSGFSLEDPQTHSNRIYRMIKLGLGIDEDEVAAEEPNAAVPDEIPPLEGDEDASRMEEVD

Row | Structure (SMILES) | IC50
1 | CCNC(=O)c1cc2c(-c3ccc(C#N)cc3C)nc(N)nc2s1 [Example 84] | < 10 µM
2 | CCNC(=O)c1cc2c(-c3cc(OCCN4CCN(C)CC4)c(Cl)cc3Cl)nc(N)nc2s1 [Example 246] | < 10 µM
3 | CCNC(=O)c1cc2c(-c3cc(OCC(N)=O)c(Cl)cc3Cl)nc(N)nc2s1 [Example 267] | < 10 µM
4 | CCNC(=O)c1cc2c(-c3cc(OCCN4CCCC4)c(Cl)cc3Cl)nc(N)nc2s1 [Example 253] | < 10 µM

Same assay, conditions: fluorescence polarization assay, activity range; read-out: Hsp90 FP IC50

Row | Structure (SMILES) | IC50
5 | CCCNC(=O)c1cc2c(-c3ccc(C)cc3C)nc(N)nc2s1 [Example 61] | < 10 µM
6 | C=C(c1ccc(Cl)cc1)c1nc(N)nc2sc(C(=O)OCC)cc12 [Example 280] | < 10 µM
7 | CCOC(=O)c1cc2c(-c3ccc(C)cc3C)nc(N)nc2s1 [Example 34] | < 10 µM
8 | Nc1nc(-c2ccc(Cl)cc2Cl)c2cc(C(=O)NCC(F)(F)F)sc2n1 [Example 134] | < 10 µM
9 | CCOC(=O)c1cc2c(NCCCc3c[nH]nc3C)nc(N)nc2s1 [Example 37] | > 10 µM
10 | CCOC(=O)c1cc2c(/C=C/c3cccc(OC)c3)nc(N)nc2s1 [Example 279] | < 10 µM
11 | CCOC(=O)c1cc2c(-c3cccc(CN4CCCC4)c3)nc(N)nc2s1 [Example 7] | > 10 µM
12 | CCOC(=O)c1cc2c(C(=O)c3cccc(C)c3C)nc(N)nc2s1 [Example 307] | < 10 µM
13 | CCNC(=O)c1cc2c(-c3cccc(OCc4ccccc4)c3)nc(N)nc2s1 [Example 243] | < 10 µM
14 | CCOC(=O)c1cc2c(-c3ccc(Cl)cc3C)nc(N)nc2s1 [Example 3] | < 10 µM
15 | CCNC(=O)c1cc2c(-c3cc(CNCCc4ccccc4)ccc3C)nc(N)nc2s1 [Example 215] | < 10 µM
16 | Nc1nc(-c2ccc(Cl)cc2Cl)c2cc(C(=O)NCCCO)sc2n1 [Example 101] | < 10 µM
17 | Nc1nc(-c2ccc(Cl)cc2Cl)c2cc(C(=O)NCc3cccs3)sc2n1 [Example 124] | < 10 µM
18 | CCNC(=O)c1cc2c(-c3c(C)cccc3C)nc(N)nc2s1 [Example 73] | < 10 µM
19 | Nc1nc(-c2ccc(Cl)cc2Cl)c2cc(C(=O)Nc3nccs3)sc2n1 [Example 142] | < 10 µM
20 | CCNC(=O)c1cc2c(-c3cc(C)c(C)cc3C)nc(N)nc2s1 [Example 150] | < 10 µM
21 | Nc1nc(-c2ccccc2)c2cc(C(=O)N3CCOCC3)sc2n1 [Example 70] | > 10 µM
22 | Nc1nc(-c2ccc(Cl)cc2Cl)c2cc(C(=O)NCCCn3ccnc3)sc2n1 [Example 146] | < 10 µM
23 | Cc1ccc(-c2nc(N)nc3sc(S(=O)(=O)NC4CC4)cc23)c(C)c1 [Example 274, 2-Amino-4-(2,4-dimethyl-phenyl)-thieno[2,3-d]pyrimidine-6-sulfonic acid cyclopropylamide] | < 10 µM
24 | CCOC(=O)c1cc2c(-c3ccc(CN4CCOCC4)cc3)nc(N)nc2s1 [Example 41] | > 10 µM
25 | CCOC(=O)c1cc2c(/C=C/c3ccc(C(F)(F)F)cc3)nc(N)nc2s1 [Example 288] | < 10 µM
26 | CCOC(=O)c1cc2c(NC(C)c3ccccc3)nc(N)nc2s1 (centres unmarked) [Example 26] | > 10 µM
27 | CC(C)NC(=O)c1cc2c(-c3cc(O)c(Cl)cc3Cl)nc(N)nc2s1 [Example 248] | < 10 µM
28 | CC(C)NC(=O)c1cc2c(-c3ccc(Cl)cc3Cl)nc(N)nc2s1 [Example 133] | < 10 µM

Row | Structure (SMILES) | IC50
29 | CCNC(=O)c1cc2c(-c3cc(CNCC4CCCO4)ccc3C)nc(N)nc2s1 (centres unmarked) [Example 212] | < 10 µM
30 | CCNC(=O)c1ccc(C)c(-c2nc(N)nc3sc(C(=O)NCC)cc23)c1 [Example 180] | < 10 µM
31 | CCN(CC)CCOc1cc(-c2nc(N)nc3sc(C(=O)NC(CO)CO)cc23)c(Cl)cc1Cl [Example 266] | < 10 µM
32 | Nc1nc(-c2ccccc2)c2cc(C(=O)NCCCO)sc2n1 [Example 53] | < 10 µM
33 | CCN(CC)CCCNC(=O)c1cc2c(-c3ccccc3)nc(N)nc2s1 [Example 58] | > 10 µM
34 | CCN(CC)CCOc1cc(-c2nc(N)nc3sc(C(=O)NC(C)(C)C)cc23)c(Cl)cc1Cl [Example 265] | < 10 µM
35 | C[C@@H](NC(=O)c1cc2c(-c3ccc(Cl)cc3Cl)nc(N)nc2s1)c1ccccc1 [Example 138] | < 10 µM
36 | CCNC(=O)COc1ccc(-c2nc(N)nc3sc(C(=O)OCC)cc23)c(C)c1 [Example 195] | < 10 µM
37 | CCOC(=O)c1cc2c(-c3cc(C=O)c(C)cc3C)nc(N)nc2s1 [Example 174] | < 10 µM
38 | C=Cc1ccc(-c2nc(N)nc3sc(C(=O)NCC)cc23)c(C)c1 [Example 171] | < 10 µM
39 | CCNC(=O)c1cc2c(-c3cc(CNCc4ccccc4)ccc3C)nc(N)nc2s1 [Example 200] | < 10 µM
40 | Nc1nc(-c2ccc(Cl)cc2Cl)c2cc(C(=O)NCCc3ccccn3)sc2n1 [Example 156] | < 10 µM
41 | CCOC(=O)c1cc2c(-c3ccc(OCC)cc3)nc(N)nc2s1 [Example 8] | < 10 µM
42 | CCOC(=O)c1cc2c(-c3cc4ccccc4o3)nc(N)nc2s1 [Example 13] | > 10 µM
43 | CCNC(=O)c1cc2c(-c3cc(OCC4CCCCN4C)c(Cl)cc3Cl)nc(N)nc2s1 (centres unmarked) [Example 273, 2-Amino-4-[2,4-dichloro-5-(1-methyl-piperidin-2-ylmethoxy)-phenyl]-thieno[2,3d]pyrimidine-6-carboxylic acid ethylamide] | < 10 µM
44 | COC(=O)c1cc2c(Nc3ccccc3)nc(N)nc2s1 [Example 21] | > 10 µM
45 | CCOC(=O)c1cc2c(C(C#N)c3ccccc3)nc(N)nc2s1 (centres unmarked) [Example 317] | < 10 µM
46 | CCOC(=O)c1cc2c(-c3ccc(OCCCO)cc3C)nc(N)nc2s1 [Example 194] | < 10 µM
47 | Cc1ccc(-c2nc(N)nc3sc(C(=O)NCCCO)cc23)c(C)c1 [Example 85] | < 10 µM
48 | Nc1nc(-c2ccc(Cl)cc2Cl)c2cc(C(=O)N3CCC(N)C3)sc2n1 (centres unmarked) [Example 159] | < 10 µM
49 | CCCNC(=O)c1ccc(C)c(-c2nc(N)nc3sc(C(=O)NCc4ccccc4)cc23)c1 [Example 182] | > 10 µM
50 | CCOC(=O)c1cc2c(C(C#N)c3ccc4c(c3)OCO4)nc(N)nc2s1 (centres unmarked) [Example 316, 2-Amino-4-(benzo[1,3]dioxol-5-yl-cyano-methyl)-thieno[2,3-d]pyrimidine-6-carboxylic acid ethyl ester] | < 10 µM
51 | Nc1nc(-c2ccc(Cl)cc2Cl)c2cc(C(=O)Nc3ccc(S(=O)(=O)O)cc3)sc2n1 [Example 112] | < 10 µM
52 | CC(C)NC(=O)c1cc2c(-c3ccccc3)nc(N)nc2s1 [Example 56] | < 10 µM

Row | Structure (SMILES) | IC50
53 | CCCNC(=O)c1cc2c(-c3ccccc3)nc(N)nc2s1 [Example 47] | < 10 µM
54 | CCOC(=O)c1cc2c(-c3ccccc3C)nc(N)nc2s1 [Example 15] | < 10 µM
55 | CCOC(=O)c1cc2c(-c3cccnc3)nc(N)nc2s1 [Example 94] | > 10 µM
56 | CN(C)CCNC(=O)c1cc2c(-c3ccccc3)nc(N)nc2s1 [Example 44] | < 10 µM
57 | CCNC(=O)c1cc2c(-c3cc(OCCN4CCCCC4)c(Cl)cc3Cl)nc(N)nc2s1 [Example 238] | < 10 µM
58 | CC(C)C[C@H](NC(=O)c1cc2c(-c3ccc(Cl)cc3Cl)nc(N)nc2s1)C(N)=O [Example 161] | < 10 µM
59 | CNC(=O)c1cc2c(Nc3ccccc3)nc(N)nc2s1 [Example 64] | > 10 µM
60 | C[C@H](NC(=O)c1cc2c(-c3ccc(Cl)cc3Cl)nc(N)nc2s1)C(N)=O [Example 160] | < 10 µM
61 | CCOC(=O)c1cc2c(C(=O)c3ccc(OC)c(OC)c3)nc(N)nc2s1 [Example 310] | < 10 µM
62 | CCOC(=O)c1cc2c(/C=C/c3ccc(F)cc3)nc(N)nc2s1 [Example 282] | < 10 µM
63 | CCOC(=O)c1cc2c(-c3ccc(C)cc3)nc(N)nc2s1 [Example 11] | < 10 µM
64 | NC(=O)CCNC(=O)c1cc2c(-c3ccc(Cl)cc3Cl)nc(N)nc2s1 [Example 131] | < 10 µM
65 | CCOC(=O)c1cc2c(NC(C)(C)c3ccccc3)nc(N)nc2s1 [Example 29] | > 10 µM
66 | CCOC(=O)c1cc2c(C(=O)c3ccc4c(c3)OCCO4)nc(N)nc2s1 [Example 312] | < 10 µM
67 | CCN(CC)CCOc1cc(-c2nc(N)nc3sc(C(=O)NC(C)C)cc23)c(Cl)cc1Cl [Example 237, 2-Amino-4-[2,4-dichloro-5-(2-diethylamino-ethoxy)-phenyl]-thieno[2,3-d]pyrimidine-6-carboxylic acid isopropyl amide] | < 10 µM
68 | NC(=O)[C@H](CO)NC(=O)c1cc2c(-c3ccc(Cl)cc3Cl)nc(N)nc2s1 [Example 162] | < 10 µM
69 | CCOC(=O)CSc1nc(N)nc2sc(C(=O)OCC)cc12 [Example 20] | > 10 µM
70 | CC(C)CNC(=O)c1cc2c(-c3ccccc3)nc(N)nc2s1 [Example 52] | > 10 µM
71 | CCOC(=O)c1cc2c(C(=O)c3ccc(Cl)cc3)nc(N)nc2s1 [Example 295, 2-Amino-4-(4-chloro-benzoyl)-thieno[2,3-d]pyrimidine-6-carboxylic acid ethyl ester] | < 10 µM
72 | Nc1nc(-c2ccc(Cl)cc2Cl)c2cc(C(=O)NCCO)sc2n1 [Example 136] | < 10 µM
73 | CCOC(=O)c1cc2c(NCCCc3c[nH]nc3O)nc(N)nc2s1 [Example 36] | > 10 µM
74 | CCOC(=O)c1cc2c(-c3cccc(C(N)=O)c3)nc(N)nc2s1 [Example 40] | > 10 µM
